# What was measured:
# [1] = system: mice (arterial blood pressure); test: Blood pressure response to intravenous peptide injection, radiotelemetry; format: in vivo, mouse; settings: for BP response to i.v. injection: 0.2 nmol/kg i.v.
# Protocol: This hypothesis was further tested by measuring changes in BP in response to ET-1 and AI, the precursor of vasoconstrictive peptide AII. The changes in the diastolic and systolic BP (ΔDBP and ΔSBP, respectively) were calculated as the differences between the measured BP values and the basal values measured for the 30 min interval preceding the injection. To reduce the impact of the stress on BP caused by animal handling/injection, animals were receiving daily saline injections for 3 days prior to the experiment.
# Figure 3 Mice with combined CathA/Scpep1 deficiency show higher increase in BP in response to systemic injection of ET-1. Sixteen week-old WT, Scpep1^−/−, CathA^S190A and DD male mice kept for two weeks on high-salt diet were intravenously injected with ET-1 solution in saline at a dose of 0.2 nmol/kg (A, B) and 5 nmol/kg (C, D). Changes in the systolic (ΔSBP) or diastolic (ΔDBP) blood pressure were calculated as differences between the means (±S.E) of the BP values recorded within 10 min intervals after the injections and means (±S.E) of the baseline BP values recorded within the 30 min interval before the injections. Two-way repeated measurements ANOVA was used to test differences between the mouse groups: significant differences between the mean BP values in Bonferroni post-test (* p<0.05, ** p<0.001, *** p<0.0001) are shown in the insert. N-value for each genotype is as follows: WT n = 5, DD n = 6, CathA^S190A n = 6, Scpep1 ^−/− n = 7.
# Male CathA^S190A mice and appropriate littermate controls were implanted with TA11PA-C10 radiotelemetry sensors (Data Sciences International) in the left carotid artery for direct measurement of arterial pressure and heart rate as described, [38]. The transmitter was placed subcutaneously along the left flank. For basal measurements of mean day and night BP data were recorded continuously (sampling every hour for 20 sec) within 16 consecutive days and averaged for 12 h light and dark intervals. To measure changes in BP after ET-1 and AI injections data were recorded every 3 min for 2 h and averaged for 10-min consecutive intervals. […]
# mesenteric arteries = test: Vessel reactivity ex vivo; set-up: species or system mouse; settings: 10^−11–10^−8 M
# Protocol: Vessel reactivity ex vivo was analyzed as described, [40]. Briefly, male mice were sacrificed at five months and their mesenteric arteries were isolated and mounted onto glass capillaries in an artereograph chamber filled with cold oxygenated Krebs solution (118.6 mM NaCl, 4.7 mM KCl, 1.2 mM KH2PO4, 1.2 mM MgSO4, 25.1 mM NaHCO3, 26 µM EDTA, 0.18% glucose, 2.5 mM CaCl2). The arteries were constantly perfused intraluminally with Krebs solution at 30 mmHg. After 45 minutes of equilibration vascular reactivity was measured in response to Norepinephrine (Sigma A-0937, 10^−9–10^−5 M), Acetylcholine (Sigma A-6625, 10^−9–10^−4 M), Sodium Nitroprusside (Calbiochem 56538, 10^−9–10^−4 M), Endothelin-1 (American Peptide Company 88-1-10, 10^−11–10^−8 M) and AI, (American Peptide Company 12-1-10, 10^−8–10^−4 M). Drugs were added extraluminally with a 30 min washout period in between each drug, during which the arteries were able to re-equilibrate to a baseline. To test vasodilatation arteries were pre-contracted with NE to 70% of their equilibration diameter. At least 3 concentration response curves were conducted for each vessel and at least 6 animals were studied for each genotype.
# [2] = ET-1 degradation rate in mouse blood and tissues (ELISA); format: in vivo; settings: tail vein injection, at least 5 mice
# Protocol: To determine the ET-1 degradation rate we injected mice in the tail vein with an ET-1 solution in saline at a dose of […]. Fifteen minutes after injection mice were sacrificed and their lungs and aorta as well as blood were collected to measure the concentration of ET-1 by ELISA. Endogenous levels of ET-1 were measured in the animals injected with saline.
# Figure 6 Mice with combined CathA/Scpep1 deficiency have reduced ET-1 degradation rate. Blood plasma, lungs and aorta were collected from WT, Scpep1 ^−/−, CathA^S190A and DD mice 15 min post an intravenous injection of saline or ET-1 in saline (10 nmol/kg BW). The levels of ET-1 peptide were measured by ELISA in lung extracts (A), aorta extracts (B), and in blood plasma extracts (C) from mice injected with ET-1 and blood plasma extracts from mice injected with saline (D). Data are expressed as mean values (±S.E). At least 5 mice were studied for each genotype. * p<0.05 in Welch's modification of two-tailed unpaired t-test. […]
# For peptide extraction, tissues (200 mg) were homogenized in 1 mol/L CH3COOH/20 mM HCl. […] Quantitative assay of ET-1 was performed with an ELISA kit (Enzo Life Sciences ADI-900-020A) as described by the manufacturer.
substance,measurement,setting,value
endothelin-1 [ET-1],BP response to i.v. injection,"[1]; DD mice versus other genotypes, high-salt diet",higher response as compared to all other groups of mice
same,BP response to i.v. injection,[1]; WT and Scpep1-deficient mice on high-salt diet,no BP increase
same,time BP remained significantly elevated after injection,"[1]; 5 nmol/kg i.v., DD mice",at least 60 min
same,vessel reactivity versus WT mice,mesenteric arteries; mesenteric arteries of CathA^S190A and Scpep1^−/− mice,higher
same,vessel reactivity versus all other groups of mice,mesenteric arteries; mesenteric arteries of CathA^S190A/Scpep1^−/− mice,significantly higher
same,ET-1 concentration 15 min after injection versus WT or Scpep1-deficient animals,[2]; lungs and aorta of CathA-deficient mice,higher
same,"ET-1 concentration 15 min after injection versus WT, CathA-deficient or Scpep1-deficient mice","[2]; tissues or plasma of DD mice, dose printed 0.1 nmol/kg BW",significantly higher

# — paper PMC3937211, “Serine Carboxypeptidase SCPEP1 and Cathepsin A Play Complementary Roles in Regulation of Vasoconstriction via Inactivation of Endothelin-1” (PLoS Genetics, 2014)
